Experimental data as given in ChEMBL document CHEMBL1201862, “PubChem BioAssay data set” (2004).
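96-well plates; 48 h exposure; 5 concentrations. Endpoints by linear interpolation between flanking doses. Not reached: highest tested concentration assigned. GI50 marks 50% less growth.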 Activity calls are given as the source filed them. Cut-off read from the data, not from the text of the source: active = GI50 up to about 1.1 µM and inactive = higher.

Legend:
Test in all cases: NCI-60 cell line screen, 48 h
BT-549 = tested on: BT-549
T47D = tested on: T47D
UACC-62 = tested on: UACC-62
NCI-H23 = tested on: NCI-H23
OVCAR-4 = tested on: OVCAR-4
SF-268 = tested on: SF-268
SNB-19 = tested on: SNB-19
SF-295 = tested on: SF-295
HOP-92 = tested on: HOP-92
OVCAR-8 = tested on: OVCAR-8
SK-OV-3 = tested on: SK-OV-3
A549 = tested on: A549
NCI-H460 = tested on: NCI-H460
ACHN = tested on: ACHN
DU-145 = tested on: DU-145
MDA-N = tested on: MDA-N
COLO 205 = tested on: COLO 205
IGROV-1 = tested on: IGROV-1
NCI-H522 = tested on: NCI-H522
HL-60 = tested on: HL-60

Structure (SMILES) | GI50 (BT-549) | GI50 (T47D) | GI50 (UACC-62) | GI50 (NCI-H23) | GI50 (OVCAR-4) | GI50 (SF-268) | GI50 (SNB-19) | GI50 (SF-295) | GI50 (HOP-92) | GI50 (OVCAR-8) | GI50 (SK-OV-3) | GI50 (A549) | GI50 (NCI-H460) | GI50 (ACHN) | GI50 (DU-145) | GI50 (MDA-N) | GI50 (COLO 205) | GI50 (IGROV-1) | GI50 (NCI-H522) | GI50 (HL-60)
NS(=O)(=O)c1nnc(NS(=O)(=O)c2ccc(F)cc2)s1 | > 100 µM (inactive) | > 100 µM (inactive) | > 100 µM (inactive) | > 100 µM (inactive) | > 100 µM (inactive) | > 100 µM (inactive) | > 100 µM (inactive) | > 100 µM (inactive) | > 100 µM (inactive) | > 100 µM (inactive) | > 100 µM (inactive) | > 100 µM (inactive) | > 100 µM (inactive) | > 100 µM (inactive) | > 100 µM (inactive) | > 100 µM (inactive) | > 100 µM (inactive) |  |  | 
CC1(C)OC2C(=O)C=C(COCc3ccccc3)C2O1 (centres undefined) | 15.6 µM (inactive) | 23 µM (inactive) | 12.3 µM (inactive) | 19.2 µM (inactive) |  | 25.4 µM (inactive) | 47.2 µM (inactive) | 35.2 µM (inactive) |  | 34.2 µM (inactive) | 9.44 µM (inactive) | > 100 µM (inactive) |  | 31.6 µM (inactive) | 44.6 µM (inactive) | 34.8 µM (inactive) | 20.5 µM (inactive) | 19.8 µM (inactive) | 16.5 µM (inactive) | 11.2 µM (inactive)
COc1cc(N(Cc2ccc3nc(OC)c(OC)nc3c2)Cc2ccc3nc(OC)c(OC)nc3c2)cc(OC)c1OC | 6.78 µM (inactive) | > 50 µM (inactive) | > 50 µM (inactive) | > 50 µM (inactive) | > 50 µM (inactive) | 32.1 µM (inactive) | 14.9 µM (inactive) | 19.6 µM (inactive) |  | > 50 µM (inactive) | 29.1 µM (inactive) | > 50 µM (inactive) |  | 42.2 µM (inactive) | > 50 µM (inactive) | > 50 µM (inactive) | > 50 µM (inactive) |  | > 50 µM (inactive) | > 50 µM (inactive)
Fc1cccc(F)c1C1SCc2nc3cc4ccccc4cc3n21 (centres undefined) | 8.71 µM (inactive) | 23 µM (inactive) | 23.4 µM (inactive) | 52.7 µM (inactive) | 3.16 µM (inactive) | 52.2 µM (inactive) |  | 29.7 µM (inactive) | 16.3 µM (inactive) | 58.6 µM (inactive) | 91 µM (inactive) | 33.3 µM (inactive) |  |  | 80.4 µM (inactive) | 39 µM (inactive) | 31.2 µM (inactive) | 21.7 µM (inactive) |  | 
Cc1ccsc1/C=N/Nc1nc2ccccc2s1 | 71.3 µM (inactive) | 48.8 µM (inactive) | 27.9 µM (inactive) | 31.8 µM (inactive) | 19.7 µM (inactive) | 21.4 µM (inactive) | 12.8 µM (inactive) | 10.6 µM (inactive) | 13.4 µM (inactive) | 23 µM (inactive) | 12.5 µM (inactive) | 16.3 µM (inactive) |  | 14 µM (inactive) | 26.8 µM (inactive) | 34.8 µM (inactive) | 35.2 µM (inactive) | 11 µM (inactive) |  | 
COc1ccc(NC(=S)c2ccc(CN3CCCCC3)s2)cc1 | 17 µM (inactive) | 19.8 µM (inactive) | 17.1 µM (inactive) | 12.5 µM (inactive) | 29 µM (inactive) | 18 µM (inactive) | 21.3 µM (inactive) | 18.3 µM (inactive) |  | 17.9 µM (inactive) | 16.4 µM (inactive) | 20.3 µM (inactive) | 17.5 µM (inactive) | 31 µM (inactive) | 38.2 µM (inactive) | 18.5 µM (inactive) | 16.2 µM (inactive) | 22.8 µM (inactive) | 14.8 µM (inactive) | 14.3 µM (inactive)
Cc1cc(C)c(C)c(-n2[nH]c(=O)n(C)c2=O)c1C | > 100 µM (inactive) | > 100 µM (inactive) | > 100 µM (inactive) | > 100 µM (inactive) |  | > 100 µM (inactive) | > 100 µM (inactive) | > 100 µM (inactive) | > 100 µM (inactive) | > 100 µM (inactive) | > 100 µM (inactive) | > 100 µM (inactive) | > 100 µM (inactive) | > 100 µM (inactive) | > 100 µM (inactive) | > 100 µM (inactive) | > 100 µM (inactive) | > 100 µM (inactive) |  | > 100 µM (inactive)
C#CCOCC12C=CC(O1)C1C(=O)OCC12 (centres undefined) | > 100 µM (inactive) | > 100 µM (inactive) | > 100 µM (inactive) | > 100 µM (inactive) | > 100 µM (inactive) | > 100 µM (inactive) | > 100 µM (inactive) | > 100 µM (inactive) |  | > 100 µM (inactive) | > 100 µM (inactive) | > 100 µM (inactive) | > 100 µM (inactive) | > 100 µM (inactive) | > 100 µM (inactive) | > 100 µM (inactive) | > 100 µM (inactive) | > 100 µM (inactive) | > 100 µM (inactive) | > 100 µM (inactive)
CC(C)/C(Cl)=N\OC(=O)Nc1ccc(F)cc1F | 13 µM (inactive) | 14.4 µM (inactive) | 16.9 µM (inactive) | 14.3 µM (inactive) | 3.76 µM (inactive) | 19.5 µM (inactive) | 19.5 µM (inactive) | 15.1 µM (inactive) | 1.82 µM (inactive) | 15.6 µM (inactive) | 17.1 µM (inactive) | 18.4 µM (inactive) | 20.7 µM (inactive) | 3.36 µM (inactive) | 17.8 µM (inactive) | 9.33 µM (inactive) | 1.87 µM (inactive) | 16 µM (inactive) |  | 0.486 µM (active)
COc1ccc(/C=C2\CN(C)CC3C2=NN(c2ccccc2)C3c2ccc(OC)cc2)cc1 (centres undefined) | > 100 µM (inactive) | > 100 µM (inactive) | 75 µM (inactive) | > 100 µM (inactive) | > 100 µM (inactive) | > 100 µM (inactive) | 27.2 µM (inactive) | 62.2 µM (inactive) | 28 µM (inactive) | 67.5 µM (inactive) | 16.6 µM (inactive) | > 100 µM (inactive) | > 100 µM (inactive) | 77.1 µM (inactive) | > 100 µM (inactive) | > 100 µM (inactive) | > 100 µM (inactive) | > 100 µM (inactive) | 72.9 µM (inactive) | 
CC1OC(OC2C(O)COC(OC3C(C)OC(OC4C(OC(=O)[C@]56CCC(C)(C)C[C@@H]5C5=CCC7[C@@]8(C)C[C@H](O)[C@H](OC9OC(CO)C(O)C(OC%10OC(CO)C(O)C(O)C%10O)C9O)[C@@](C)(CO)[C@@H]8CC[C@@]7(C)[C@]5(C)CC6)OCC(O)C4O)C(O)C3O)C2O)C(O)C(O)C1O (some centres undefined) | 22.4 µM (inactive) | 16 µM (inactive) | 22.3 µM (inactive) | 14.9 µM (inactive) | 14.9 µM (inactive) | 21.4 µM (inactive) | 16.4 µM (inactive) | 14.4 µM (inactive) | 20.6 µM (inactive) | 17 µM (inactive) | 15.7 µM (inactive) | 14.4 µM (inactive) | 19 µM (inactive) | 17.7 µM (inactive) | 14.6 µM (inactive) | 17.1 µM (inactive) | 5.15 µM (inactive) |  | 15.5 µM (inactive) | 
CC1(C)CC(O)C(C)(C)[C@@H](O)C1 (some centres undefined) | > 100 µM (inactive) | > 100 µM (inactive) | > 100 µM (inactive) | > 100 µM (inactive) | > 100 µM (inactive) | > 100 µM (inactive) | > 100 µM (inactive) | > 100 µM (inactive) |  | > 100 µM (inactive) | > 100 µM (inactive) | > 100 µM (inactive) | > 100 µM (inactive) | > 100 µM (inactive) | > 100 µM (inactive) | > 100 µM (inactive) | > 100 µM (inactive) | > 100 µM (inactive) | > 100 µM (inactive) | > 100 µM (inactive)
COC(=O)C1=CSC2(S1)C(C(=O)OC)=CSc1c2ss/c1=N\c1ccccc1 (centres undefined) | 2.74 µM (inactive) | 7.64 µM (inactive) | 1.6 µM (inactive) | 2.47 µM (inactive) | 1.87 µM (inactive) | 3.02 µM (inactive) | 2.47 µM (inactive) | 1.81 µM (inactive) |  | 1.81 µM (inactive) | 2.72 µM (inactive) | 2.52 µM (inactive) | 3.07 µM (inactive) | 2.56 µM (inactive) | 2.96 µM (inactive) | 2.17 µM (inactive) | 2.16 µM (inactive) | 2.47 µM (inactive) | 1.25 µM (inactive) | 
CC(=O)N1C(c2[nH]c3ccccc3c2-c2ccccc2)CCN1c1ccccc1 (centres undefined) | > 10 µM (inactive) | > 10 µM (inactive) |  | > 10 µM (inactive) | > 10 µM (inactive) | > 10 µM (inactive) | > 10 µM (inactive) | > 10 µM (inactive) |  | > 10 µM (inactive) | > 10 µM (inactive) | > 10 µM (inactive) | > 10 µM (inactive) | > 10 µM (inactive) | > 10 µM (inactive) | > 10 µM (inactive) | > 10 µM (inactive) | > 10 µM (inactive) | > 10 µM (inactive) | > 10 µM (inactive)
CC(C)CCNC(=O)c1ccc(CNC(=O)/C=C/c2cccc(Oc3ccccc3)c2)cc1 | 60.1 µM (inactive) | 79.3 µM (inactive) | 23.8 µM (inactive) | 34.3 µM (inactive) | 27.7 µM (inactive) | 37.3 µM (inactive) | 24.5 µM (inactive) | 23.8 µM (inactive) | 53.2 µM (inactive) | 25.9 µM (inactive) | 33.1 µM (inactive) | 42.6 µM (inactive) | 34.3 µM (inactive) | 48.4 µM (inactive) | 70.3 µM (inactive) | 16.5 µM (inactive) | > 100 µM (inactive) | 67.5 µM (inactive) | 52.5 µM (inactive) | 
